From patent US20200390689A1, “CERDULATINIB-CONTAINING TOPICAL SKIN PHARMACEUTICAL COMPOSITIONS AND USES THEREOF” (Dermavant Sciences GmbH, priority 2018, published 2020)
pIC50: −log10 of the molar value. Like-named read-outs stand apart in the source and are kept apart here.

Assays:
[1] = test system: DNCB-induced atopic dermatitis; experiment: DNCB-induced atopic dermatitis in the NC/Nga mouse model; assay type: in vivo
Method: Atopic dermatitis was induced by repeated application of DNCB (1-chloro-2,4-dinitrobenzene) to the dorsal skin of the ears/back. […] Lesions were evaluated on days 2, 8, 11, and 14.
Macroscopic lesion severity scores are depicted in FIG. 7. Macroscopic skin lesion severity was measured on the indicated Study Days by assessing (0-3 scale) the presence of erythema, edema, excoriation/erosion, and dryness scaling on the ears, neck, and dorsal skin of animals.
Serum IgE levels are depicted in FIG. 8. Serum samples obtained on Study Day 15 were utilized for IgE quantitation. Select cytokine data from the study are depicted in FIG. 9. Skin samples harvested on Day 15 were analyzed by LUMINEX for inflammatory cytokine levels for IL-4, IL-5, IL-13, and IL-31.

[2] = test system: IL-4-mediated upregulation of CD23 and CD25 on monocytes; experiment: IL-4-mediated upregulation of cell surface markers CD23 and CD25 on monocytes; assay type: cell-based; conditions: Homo sapiens, Monocyte
[3] = test system: IL-6 (JAK1/2/Tyk2) STAT3 Y705 phosphorylation; experiment: IL-6 stimulated STAT3 Y705 phosphorylation in human whole blood; assay type: cell-based; conditions: Monocyte, monocytes
Excerpt: (§1) To evaluate downstream signaling following cytokine stimulation, human whole blood was stimulated with IL-2 (JAK1/3-mediated signaling), which results in phosphorylation of STAT5 at tyrosine residue 694 (Y694). […] IL-6 (JAK1/2/Tyk2) stimulation leads to STAT3 Y705 phosphorylation in monocytes.

Syk = biological target: T1, Syk (Homo sapiens, UniProt P43405); experiment: DiscoveRx cellular platform, Syk; assay type: cell-based
T1 construct: DiscoveRx

[4] = test system: JAK1/JAK3-dependent signaling pathways; experiment: Cytokine-mediated STAT phosphorylation in peripheral blood mononuclear cells (phospho-flow cytometry); assay type: cell-based; conditions: Homo sapiens; PBMC; T cells and monocytes
JAK1 = JAK1 (Homo sapiens, UniProt P23458); experiment: cell-based
[5] = test system: IL-4 (JAK1/3-mediated) STAT6 Y641 phosphorylation; experiment: IL-4 stimulated STAT6 Y641 phosphorylation in human whole blood; assay type: cell-based
Excerpt: as §1

Tyk2 = biological target: T2, Tyk2 (Homo sapiens, UniProt P29597); experiment: DiscoveRx cellular platform, Tyk2; assay type: cell-based
T2 construct: DiscoveRx

vitiligo = experiment: Study DMVT-502-9025, mouse model of vitiligo; assay type: in vivo
Method: The model mimics human vitiligo by inducing epidermal depigmentation with autoreactive CD8+ T-cell accumulation. A schematic of the model is depicted in FIG. 15. […] Ten mice were used in the study: three REX3 reporter mice for cytokines CXCL9 and CXCL10 and seven SCF (stem cell factor) mice. The vitiligo study timeline is depicted in FIG. 16. The following assessments were performed during the study: • Blinded scoring of ears, tail, nose, and ventral feet (0-5 scale) • Epidermal, dermal, spleen, and lymph node PMEL (premelanosome protein) cell count • Epidermal/dermal APC (antigen-presenting cell) count • Keratinocyte cytokine expression

[6] = test system: monocyte differentiation into immature DCs; experiment: IL-4/GM-CSF-mediated monocyte differentiation to immature dendritic cells (flow cytometry); assay type: cell-based; conditions: Homo sapiens, 120 h, purified monocytes, CD1a expression after five days
Method: Dendritic cells (DCs) are important antigen presenting cells that play an integral role in mediating inflammatory skin diseases. A subset of DCs are derived from monocytes and this differentiation is driven by IL-4/GM-CSF co-stimulation. The ability of DMVT-502 to disrupt the signaling responsible for monocyte differentiation into immature DCs was assessed by flow cytometry. […] Five days later, cells were stained for CD14 (monocyte marker) and CD1a (immature dendritic cell marker) and assessed for immature DC differentiation.

JAK2 = JAK2 (Homo sapiens, UniProt O60674); experiment: cell-based
[7] = test system: IL-2 (JAK1/3-mediated signaling) STAT5 Y694 phosphorylation; experiment: IL-2 stimulated STAT5 Y694 phosphorylation in human whole blood; assay type: cell-based
Excerpt: as §1

[8] = test system: GM-CSF (JAK2-mediated) STAT5 Y694 phosphorylation; experiment: GM-CSF stimulated STAT5 Y694 phosphorylation in human whole blood; assay type: cell-based; conditions: Monocyte, monocytes, read-out: IC50, GM-CSF induced STAT5 Y694 phosphorylation
[9] = 30 and 60 mg/kg oral, vs vehicle

JAK2, sequence (O60674 whole entry): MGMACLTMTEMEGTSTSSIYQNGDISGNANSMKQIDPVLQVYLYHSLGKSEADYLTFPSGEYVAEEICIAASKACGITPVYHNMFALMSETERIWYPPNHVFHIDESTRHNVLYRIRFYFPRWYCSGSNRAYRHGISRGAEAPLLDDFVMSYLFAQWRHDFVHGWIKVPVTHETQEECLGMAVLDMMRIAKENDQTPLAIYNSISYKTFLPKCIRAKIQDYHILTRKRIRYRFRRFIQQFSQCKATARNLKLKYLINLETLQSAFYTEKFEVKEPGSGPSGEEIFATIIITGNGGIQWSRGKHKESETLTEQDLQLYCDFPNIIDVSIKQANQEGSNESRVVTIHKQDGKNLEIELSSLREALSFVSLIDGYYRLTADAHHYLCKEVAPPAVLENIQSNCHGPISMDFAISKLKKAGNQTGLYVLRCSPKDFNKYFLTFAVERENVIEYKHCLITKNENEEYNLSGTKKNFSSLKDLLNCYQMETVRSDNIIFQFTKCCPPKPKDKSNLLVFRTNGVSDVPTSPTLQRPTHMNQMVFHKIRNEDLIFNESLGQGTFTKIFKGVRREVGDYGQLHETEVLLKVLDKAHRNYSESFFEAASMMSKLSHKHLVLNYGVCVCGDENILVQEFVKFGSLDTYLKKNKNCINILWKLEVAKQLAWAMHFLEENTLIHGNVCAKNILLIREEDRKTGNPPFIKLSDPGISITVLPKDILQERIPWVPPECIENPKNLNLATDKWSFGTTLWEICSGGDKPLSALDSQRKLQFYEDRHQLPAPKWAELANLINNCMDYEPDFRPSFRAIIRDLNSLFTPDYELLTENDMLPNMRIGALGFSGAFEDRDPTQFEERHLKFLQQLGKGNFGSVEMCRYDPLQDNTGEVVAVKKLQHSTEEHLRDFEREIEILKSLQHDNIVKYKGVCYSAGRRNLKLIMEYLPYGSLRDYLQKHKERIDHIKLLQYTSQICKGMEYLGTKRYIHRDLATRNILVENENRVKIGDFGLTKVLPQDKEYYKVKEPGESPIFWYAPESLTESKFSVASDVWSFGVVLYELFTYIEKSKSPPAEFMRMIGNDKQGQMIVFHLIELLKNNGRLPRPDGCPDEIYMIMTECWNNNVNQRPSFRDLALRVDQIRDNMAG
T2 sequence (P29597 whole entry): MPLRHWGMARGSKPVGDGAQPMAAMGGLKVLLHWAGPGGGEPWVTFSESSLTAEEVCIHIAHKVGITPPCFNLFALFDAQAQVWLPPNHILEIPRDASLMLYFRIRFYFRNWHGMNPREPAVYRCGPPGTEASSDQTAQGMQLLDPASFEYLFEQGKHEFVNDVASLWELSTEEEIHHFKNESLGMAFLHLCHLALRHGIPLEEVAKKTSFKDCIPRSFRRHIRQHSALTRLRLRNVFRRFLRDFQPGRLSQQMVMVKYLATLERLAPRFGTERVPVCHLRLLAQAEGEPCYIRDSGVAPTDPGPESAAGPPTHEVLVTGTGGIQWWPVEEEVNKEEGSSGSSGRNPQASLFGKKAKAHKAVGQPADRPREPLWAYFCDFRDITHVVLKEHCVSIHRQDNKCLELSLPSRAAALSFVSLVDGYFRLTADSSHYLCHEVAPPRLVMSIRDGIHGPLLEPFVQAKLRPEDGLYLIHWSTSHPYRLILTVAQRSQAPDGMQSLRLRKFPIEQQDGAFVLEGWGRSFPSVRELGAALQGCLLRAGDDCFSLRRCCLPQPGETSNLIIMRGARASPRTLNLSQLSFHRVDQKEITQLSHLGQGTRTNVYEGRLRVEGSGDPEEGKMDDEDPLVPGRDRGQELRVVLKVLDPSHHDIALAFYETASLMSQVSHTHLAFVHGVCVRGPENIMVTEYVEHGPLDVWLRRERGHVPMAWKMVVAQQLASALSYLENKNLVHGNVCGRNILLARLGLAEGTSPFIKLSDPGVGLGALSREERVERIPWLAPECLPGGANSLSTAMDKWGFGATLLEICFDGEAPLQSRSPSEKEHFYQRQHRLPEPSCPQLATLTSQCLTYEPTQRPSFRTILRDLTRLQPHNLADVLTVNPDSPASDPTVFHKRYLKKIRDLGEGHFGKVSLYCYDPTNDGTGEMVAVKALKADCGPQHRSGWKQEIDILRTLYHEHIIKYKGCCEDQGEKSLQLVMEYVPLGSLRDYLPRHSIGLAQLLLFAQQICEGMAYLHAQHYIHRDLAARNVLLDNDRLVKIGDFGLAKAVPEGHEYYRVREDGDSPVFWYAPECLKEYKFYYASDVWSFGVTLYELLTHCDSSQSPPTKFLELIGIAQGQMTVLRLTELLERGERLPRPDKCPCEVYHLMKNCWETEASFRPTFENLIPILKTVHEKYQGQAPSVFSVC
JAK1, sequence (P23458 whole entry): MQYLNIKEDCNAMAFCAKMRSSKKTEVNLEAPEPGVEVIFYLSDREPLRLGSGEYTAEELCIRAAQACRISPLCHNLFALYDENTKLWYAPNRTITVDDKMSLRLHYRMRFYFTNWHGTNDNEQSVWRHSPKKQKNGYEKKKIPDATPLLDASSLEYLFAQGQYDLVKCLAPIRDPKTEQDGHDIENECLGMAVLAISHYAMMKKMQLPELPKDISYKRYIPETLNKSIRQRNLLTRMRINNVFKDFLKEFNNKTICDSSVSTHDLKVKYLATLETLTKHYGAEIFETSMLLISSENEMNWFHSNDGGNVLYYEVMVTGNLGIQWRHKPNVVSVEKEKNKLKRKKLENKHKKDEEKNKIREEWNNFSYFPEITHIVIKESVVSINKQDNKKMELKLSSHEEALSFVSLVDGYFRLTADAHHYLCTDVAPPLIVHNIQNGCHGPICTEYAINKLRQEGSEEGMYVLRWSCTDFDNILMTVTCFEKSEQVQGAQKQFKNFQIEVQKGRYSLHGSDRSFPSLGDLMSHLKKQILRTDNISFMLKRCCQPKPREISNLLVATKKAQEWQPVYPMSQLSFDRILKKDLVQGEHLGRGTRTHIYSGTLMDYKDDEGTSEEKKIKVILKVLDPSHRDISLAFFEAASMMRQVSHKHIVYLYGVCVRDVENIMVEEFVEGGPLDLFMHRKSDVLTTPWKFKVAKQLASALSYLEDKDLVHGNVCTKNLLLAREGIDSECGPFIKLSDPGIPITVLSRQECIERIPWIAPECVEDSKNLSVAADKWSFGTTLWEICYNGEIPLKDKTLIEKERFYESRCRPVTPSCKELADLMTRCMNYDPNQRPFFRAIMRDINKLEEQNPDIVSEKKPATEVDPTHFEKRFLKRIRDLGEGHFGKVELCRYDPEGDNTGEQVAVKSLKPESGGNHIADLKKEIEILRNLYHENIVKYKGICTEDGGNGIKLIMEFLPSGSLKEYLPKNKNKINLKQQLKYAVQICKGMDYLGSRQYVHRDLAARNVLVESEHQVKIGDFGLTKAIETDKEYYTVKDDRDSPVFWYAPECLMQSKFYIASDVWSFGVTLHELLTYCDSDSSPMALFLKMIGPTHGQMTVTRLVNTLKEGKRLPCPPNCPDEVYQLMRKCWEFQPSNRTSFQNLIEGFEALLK

CCS(=O)(=O)N1CCN(c2ccc(Nc3ncc(C(N)=O)c(NC4CC4)n3)cc2)CC1 [DMVT-502, Cerdulatinib]
Pro-inflammatory cytokine levels in skin ([1]; Day 15, topical treatment): limited suppression | Serum IgE levels ([1]; Study Day 15, topical therapy): trends towards reduction | pIC50 ([2]; read-out: IC50, IL-4-mediated upregulation of CD23): 6.64 | pIC50 ([2]; read-out: IC50, IL-4-mediated upregulation of CD25): 6.38 | pIC50 [3]: 6.59 | pIC50 (Syk): 5.89 | pIC50 [4]: > 6.70 | pIC50 (JAK1): 7.01 | pIC50 ([5]; B-cell, CD19+ B cells): 6.04 | pIC50 ([5]; CD4+ T cells): 6.24 | pIC50 ([5]; Monocyte, CD14+ monocytes): 6.00 | pIC50 ([5]; T-cell, CD8+ T cells): 6.48 | pIC50 (Tyk2): 5.76 | CD3+, CD8− T-cell counts in the spleen (vitiligo; 60 mg/kg oral): significantly reduced | Host T-cell counts in blood (vitiligo; 60 mg/kg oral): significantly decreased | PMEL T-cell counts in dermis and blood (vitiligo; 60 mg/kg oral): significantly reduced | APCs in the dermal skin compartment and Langerhans cells in the epidermal skin compartment (vitiligo; 60 mg/kg oral, vs vehicle): significantly reduced | Vitiligo scores (vitiligo; 30 and 60 mg/kg once daily oral, 5 weeks, vs vehicle): significantly decreased | Host-derived total T-cell counts in the spleen (vitiligo; 30 and 60 mg/kg oral): significantly reduced | APC counts in lymph nodes and the spleen (vitiligo; [9]): significantly reduced | PMEL T-cell counts in the epidermis and dermis (vitiligo; [9]): significantly reduced | CXCL9 and CXCL10 expression in lymph node APCs (vitiligo; 30 or 60 mg/kg oral): Reduced | Lymph node or spleen PMEL T cells (vitiligo; 30 or 60 mg/kg oral): no significant differences | CXCL9, CXCL10, and dual expression in keratinocytes (vitiligo; SCF/REX3 mice, vs vehicle): trends towards reduced | Total keratinocyte counts (vitiligo; between treatment groups): No decrease | pIC50 [6]: ~7.00 | pIC50 (JAK2): 5.31 | pIC50 ([7]; CD4+ T cells): 6.52 | pIC50 ([7]; T-cell, CD8+ T cells): 6.80 | pIC50 [8]: ~5.40
